These results are taken from US6022969A, “Compositions and methods for treating mast-cell mediated conditions” (AXYS Pharmaceuticals, Inc., priority 1995, dated 2000).

For orientation: Ki means a dissociation constant, usually derived from enzyme kinetics or from competition with a known ligand. Read a low Ki as higher affinity.

The assay has as its target tryptase. Description: In vitro tryptase inhibition assay (hydrolysis of tosyl-Gly-Pro-Lys-p-nitroanilide). The format is biochemical, human. Conditions: tosyl-Gly-Pro-Lys-p-nitroanilide 0.5 mM, pH 8.2, 1 h pre-incubation, room temperature. Here is the method: The compounds to be assayed (approximately 1 mg) were dissolved in 200 μL dimethylsulfoxide (DMSO) and diluted 1:10 into buffer containing 50 millimolar (mM) Tris-HCl (pH 8.2), 100 mM sodium chloride, and 0.05% polyoxyethylenesorbitan monolaurate (Tween-20®, available from Sigma, St. Louis, Mo.). Seven additional threefold dilutions were made from the initial dilution into the same buffer supplemented with 10% DMSO. Aliquots (50 microliters, μL) from each of the eight dilutions in the series were transferred to individual wells in a 96-well U-bottom microtiter plate. 25 μL of a stock solution of tryptase was added to each well and the samples were mixed and incubated for one hour at room temperature (tryptase was purified from human lung and skin tissue preparations, HMC-1 (human mast cell line) and also obtained from commercial sources (ICN Biomedicals, Irvine, Calif.; Athens Research & Technology, Athens, Ga.)). […] The tryptase solution was prepared by placing 60 μg/mL of tryptase into solution with 10 mM MES (2-[N-Morpholino]ethane sulfonic acid) containing 2 mM CaCl2, 20% glycerol and 50 μg/mL heparin. The enzyme reaction was initiated with the addition of the synthetic tripeptide substrate, tosyl-Gly-Pro-Lys-p-nitroanilide (available from Sigma, 25 μL; 0.5 mM final concentration).
However, Ki ' varies with the enzyme concentration used in the enzyme assay. […] The y-intercept of a replot of IC50 (ordinate) versus tryptase concentration (abscissa) produces a value for Ki '.
The inhibition constants (Ki ', micromolar (μM)) were determined for the compounds of the present invention.
Molecule `NCC1CCN(C(=O)NCCCCNC(=O)O[C@H]2CCC[C@@H](OC(=O)NCCCCNC(=O)N3CCC(CN)CC3)CCC2)CC1` [Compound 25, cis-1,5-cyclooctylene bis{4-[4-(aminomethyl)piperid-1-ylcarbonylamino]butylaminocarboxylate}] gave a Ki of 734 nM. This counts as sub-micromolar. `NCC1CCN(C(=O)NCC2CCN(C(=O)O[C@H]3CCC[C@@H](OC(=O)N4CCC(CNC(=O)N5CCC(CN)CC5)CC4)CCC3)CC2)CC1` [Compound 26, cis-1,5-cyclooctylene bis{4-[4-(aminomethyl)piperid-1-ylcarbonylaminomethyl)-1-piperidinecarboxylate}] registered a Ki of 332 nM. For `N=C(N)N1CCC(CNC(=O)N2CCN(C(=O)O[C@H]3CCC[C@@H](OC(=O)N4CCN(C(=O)NCC5CCN(C(=N)N)CC5)CC4)CCC3)CC2)CC1` [Compound 27, cis-1,5-cyclooctylene bis[4-(1-amidinopiperid-4-ylmethylcarbamoyl)-1-piperazinecarboxylate]] the value was 614 nM; for `N=C(N)c1ccc(CNC(=O)N2CCN(C(=O)O[C@H]3CCC[C@@H](OC(=O)N4CCN(C(=O)NCc5ccc(C(=N)N)cc5)CC4)CCC3)CC2)cc1` [Compound 28, cis-1,5-cyclooctylene bis[4-(4-amidinobenzylcarbamoyl)-1-piperazinecarboxylate}], 8.7 nM.

The molecule `N=C(N)Nc1ccc(CNC(=O)N2CCN(C(=O)OC3COC4C(OC(=O)N5CCN(C(=O)NCc6ccc(NC(=N)N)cc6)CC5)COC34)CC2)cc1` (stereo not drawn) [Compound 29, cis-2,6-(4,8-dioxabicyclo[3.3.0]octylene)bis[4-(4-guanidinobenzylcarbamoyl)-1-piperazinecarboxylate]] gave an inhibition constant Ki of 3.8 nM. `N=C(N)Nc1ccc(CNC(=O)N2CCN(C(=O)OCC3C4C=CC(CC4)C3COC(=O)N3CCN(C(=O)NCc4ccc(NC(=N)N)cc4)CC3)CC2)cc1` (stereo not drawn) [Compound 30, trans-2,3-bicyclo[2.2.2]oct-5-enylenedimethylene bis[4-(4-guanidinobenzylcarbamoyl)-1-piperazinecarboxylate]] came in with a Ki of 8 nM.

`N=C(N)Nc1ccc(CNC(=O)N2CCN(C(=O)OCC34CC5CC(C3)CC(COC(=O)N3CCN(C(=O)NCc6ccc(NC(=N)N)cc6)CC3)(C5)C4)CC2)cc1` [Compound 31, cis-1,5-tetracyclo[3.3.1.1^3,7]decylenedimethylene bis[4-(4-guanidinobenzylcarbamoyl)-1-piperazinecarboxylate]] yielded an inhibition constant Ki of 26.6 nM. For `N=C(N)c1ccc(CCNC(=O)N2CCN(C(=O)O[C@H]3CCC[C@@H](OC(=O)N4CCN(C(=O)NCCc5ccc(C(=N)N)cc5)CC4)CCC3)CC2)cc1` [Compound 33, cis-1,5-cyclooctylene bis{4-[2-(4-amidinophenyl)ethylcarbamoyl)-1-piperazinecarboxylate}] the value was 440 nM; for `NCCCCCNC(=O)N1CCN(C(=O)O[C@H]2CCC[C@@H](OC(=O)N3CCN(C(=O)NCCCCCN)CC3)CCC2)CC1` [Compound 34, cis-1,5-cyclooctylene bis[4-(5-aminopentylcarbamoyl)-1-piperazinecarboxylate]], 11 nM. As for `NCCCCCCNC(=O)N1CCN(C(=O)O[C@H]2CCC[C@@H](OC(=O)N3CCN(C(=O)NCCCCCCN)CC3)CCC2)CC1` [Compound 35, cis-1,5-cyclooctylene bis[4-(6-aminohexylcarbamoyl)-1-piperazinecarboxylate]], the Ki came to 1440 nM. This Ki is about 130-fold higher than that of the molecule before. The molecule `NCCC=CCNC(=O)N1CCN(C(=O)O[C@H]2CCC[C@@H](OC(=O)N3CCN(C(=O)NCC=CCCN)CC3)CCC2)CC1` [Compound 36, cis-1,5-cyclooctylene bis[4-(5-amino-2-pentenylcarbamoyl)-1-piperazinecarboxylate]] registered an inhibitory constant (Ki) of 125 nM. Molecule `NCCCCNC(=O)N1CCN(C(=O)O[C@H]2CCC[C@@H](OC(=O)N3CCN(C(=O)NCCCCN)CC3)CCC2)CC1` [Compound 37, cis-1,5-cyclooctylene bis[4-(4-aminobutylcarbamoyl)-1-piperazinecarboxylate]] had a Ki of 508 nM. On to `NCCOCCNC(=O)N1CCN(C(=O)O[C@H]2CCC[C@@H](OC(=O)N3CCN(C(=O)NCCOCCN)CC3)CCC2)CC1` [Compound 38, cis-1,5-cyclooctylene bis{4-[2-(2-aminoethoxy)ethylcarbamoyl]-1-piperazinecarboxylate}], for which the Ki is 750 nM.

In the case of `NC[C@H]1CC[C@H](NC(=O)OC2CCN(C(=O)O[C@H]3CCC[C@@H](OC(=O)N4CCC(OC(=O)N[C@H]5CC[C@H](CN)CC5)CC4)CCC3)CC2)CC1` [Compound 39, cis-1,5-cyclooctylene bis[4-(trans-4-aminomethylcyclohexylaminoformyloxy)-1-piperidinecarboxylate]], the Ki was found to be 858 nM. For `CN(CCOC(=O)N[C@H]1CC[C@H](CN)CC1)C(=O)O[C@H]1CCC[C@@H](OC(=O)N(C)CCOC(=O)N[C@H]2CC[C@H](CN)CC2)CCC1` [Compound 40, cis-1,5-cyclooctylene bis[N-2-(trans-4-aminomethylcyclohexylaminoformyloxy)ethyl-N-methylaminocarboxylate]] the value was 1390 nM; for `CN(CCOC(=O)NC[C@H]1CC[C@H](CN)CC1)C(=O)O[C@H]1CCC[C@@H](OC(=O)N(C)CCOC(=O)NC[C@H]2CC[C@H](CN)CC2)CCC1` [Compound 41, cis-1,5-cyclooctylene bis[N-2-(trans-4-aminomethylcyclohexylmethylaminoformyloxy)ethyl-N-methylaminocarboxylate}], 1100 nM. For `NC[C@H]1CC[C@H](CNC(=O)N2CCN(C(=O)OC[C@H]3CC[C@H](COC(=O)N4CCN(C(=O)NC[C@H]5CC[C@H](CN)CC5)CC4)CC3)CC2)CC1` [Compound 42, trans-1,4-cyclohexylenedimethylene bis[4-(trans-4-aminomethylcyclohexylmethylcarbamoyl)-1-piperazinecarboxylate]] the value was 64 nM; for `NC[C@H]1CC[C@H](CNC(=O)OC2CCN(C(=O)O[C@H]3CCC[C@@H](OC(=O)N4CCC(OC(=O)NC[C@H]5CC[C@H](CN)CC5)CC4)CCC3)CC2)CC1` [Compound 43, cis-1,5-cyclooctylene bis[4-(trans-4-aminomethylcyclohexylmethylaminoformyloxy)-1-piperidinecarboxylate]], 1450 nM. For `N=C(N)c1ccc(C(=O)NCC2CCN(C(=O)O[C@H]3CCC[C@@H](OC(=O)N4CCC(CNC(=O)c5ccc(C(=N)N)cc5)CC4)CCC3)CC2)cc1` [Compound 44, cis-1,5-cyclooctylene bis[4-(4-amidinobenzoylaminomethyl)-1-piperidinecarboxylate]] the value was 8 nM; for `N=C(N)C1CCN(C(=O)NCC2CCN(C(=O)O[C@H]3CCC[C@@H](OC(=O)N4CCC(CNC(=O)N5CCC(C(=N)N)CC5)CC4)CCC3)CC2)CC1` [Compound 45, cis-1,5-cyclooctylene bis[4-(4-amidinopiperid-1-ylcarbonylaminomethyl)-1-piperidinecarboxylate]], 114 nM; for `N=C(N)Nc1ccc(CNC(=O)N2CCN(C(=O)C3CCCCC3C(=O)N3CCN(C(=O)NCc4ccc(NC(=N)N)cc4)CC3)CC2)cc1` (stereo not drawn) [Compound 46, 1,2-cyclohexylene bis[4-(4-guanidinobenzylcarbamoyl)-1-piperazinecarboxadehyde]], 772 nM.
